# Measured values published in patent US6740644B2, “Chemical compounds” (Smithkline Beecham Corporation, priority 1997, dated 2004).
# How the values were obtained:
# [1] = target: T1, human adenosine A1 receptor (Homo sapiens, UniProt P30542); test: Reporter gene experiments: inhibition of forskolin-stimulated SPAP production in CHO cells (CRE/SPAP/HYG), A1; type: cell-based; settings: ECR = concentration ratio relative to NECA = 1, CHO cells co-expressing human adenosine A1 receptor
# T1 construct: expressed in transfected cells; host or cells: Chinese hamster ovary (CHO) cells containing the CRE/SPAP/HYG reporter gene
# T1 sequence (P30542 1-326): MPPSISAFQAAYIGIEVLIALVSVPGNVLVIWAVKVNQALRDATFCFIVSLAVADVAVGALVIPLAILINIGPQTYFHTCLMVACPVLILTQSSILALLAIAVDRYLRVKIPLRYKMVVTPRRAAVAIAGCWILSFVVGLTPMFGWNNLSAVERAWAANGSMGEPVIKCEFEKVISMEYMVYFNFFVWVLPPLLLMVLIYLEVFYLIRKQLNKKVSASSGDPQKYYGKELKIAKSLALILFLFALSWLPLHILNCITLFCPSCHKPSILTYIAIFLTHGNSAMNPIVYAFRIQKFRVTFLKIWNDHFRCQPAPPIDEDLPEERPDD
# Protocol: Reporter Gene Experiments
# Agonist activity was measured in Chinese hamster ovary (CHO) cells containing the CRE/SPAP/HYG (CRE=cyclic AMP response element; HYG=hygromycin; SPAP=secreted placental alkaline phosphatase) reporter gene, which upon stimulation of cAMP levels produced SPAP. A cell line was used, which stably co-expresses the human adenosine A1 receptor. Cells were plated out in 96-well plates in culture medium and incubated at 37° C. for 1 hour. […] All cells were then incubated for a further 5 hours at 37° C., and cooled to room temperature, after which a substrate for the phosphatase (para-nitrophenol phosphate,pNPP), which is broken down to a coloured reagent) was then added and the 96-well plates are read in a plate reader. From these readings, the concentration-dependence of the inhibition by the agonist of forskolin-stimulated SPAP production, can be calculated.
# A3 receptor = target: T2, A3 receptor (Homo sapiens, UniProt P0DMS8); test: Reporter gene experiments: A3 receptor gene assay, ECR relative to NECA; settings: ECR = concentration ratio relative to NECA = 1
# T2 sequence (P0DMS8 1-318): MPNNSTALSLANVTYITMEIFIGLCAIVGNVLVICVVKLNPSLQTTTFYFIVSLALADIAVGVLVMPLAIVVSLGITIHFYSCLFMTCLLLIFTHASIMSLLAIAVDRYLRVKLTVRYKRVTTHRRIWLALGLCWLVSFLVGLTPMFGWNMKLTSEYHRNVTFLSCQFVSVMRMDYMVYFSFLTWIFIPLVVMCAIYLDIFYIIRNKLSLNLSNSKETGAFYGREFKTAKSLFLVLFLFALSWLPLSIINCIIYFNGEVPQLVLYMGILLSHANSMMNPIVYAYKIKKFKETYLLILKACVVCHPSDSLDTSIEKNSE
Compound,melting point [°C],A1 Receptor Gene Assay ECR [1],A3 Receptor Gene Assay ECR (A3 receptor)
"COC[C@H]1O[C@@H](n2cnc3c(Nc4ccc(O)c(Cl)c4)ncnc32)[C@H](O)[C@@H]1O [Example 5, N-(3-Chloro-4-hydroxy-phenyl)-5′-O-methyl-adenosine]",225 to 230,6.21,>116
"COC[C@H]1O[C@@H](n2cnc3c(N[C@@H]4CCOC4)ncnc32)[C@H](O)[C@@H]1O [Example 1, 5′-O-Methyl-N-(tetrahydro-furan-3R-yl)-adenosine]",,,>129
"COC[C@H]1O[C@@H](n2cnc3c(NC4CCOCC4)ncnc32)[C@H](O)[C@@H]1O [Example 2, 5′-O-Methyl-N-(tetrahydro-pyran-4-yl)-adenosine]",133 to 134,3.30,180
"COC[C@H]1O[C@@H](n2cnc3c(N[C@H]4CCC[C@@H]4F)ncnc32)[C@H](O)[C@@H]1O [Example 20, N-(2S-Fluoro-(S)-cyclopentyl)-5′-O-methyl-adenosine]",,,54.8
"CCOC(=O)N1CCC(Nc2ncnc3c2ncn3[C@@H]2O[C@H](COC)[C@@H](O)[C@H]2O)CC1 [Example 23, 4-[9-(3R,4S-Dihydroxy-5R-methoxymethyl-tetrahydro-furan-2R-yl)-9H-purin-6-ylamino]-piperidine-1-carboxylic acid ethyl ester]",,2.20,162
"COC[C@H]1O[C@@H](n2cnc3c(NCC4CC4)nc(C)nc32)[C@H](O)[C@@H]1O [Example 28, N-Cyclopropylmethyl-2-methyl-5′-O-methyl-adenosine]",,8.07,>99
"COC[C@H]1O[C@@H](n2cnc3c(NC4CCCC4)nc(C)nc32)[C@H](O)[C@@H]1O [Example 27, N-Cyclopentyl-2-methyl-5′-O-methyl-adenosine]",,3.02,>263
"COC[C@H]1O[C@@H](n2cnc3c(N[C@@H]4CCO[C@H]4C)ncnc32)[C@H](O)[C@@H]1O [Example 4, 5′-O-Methyl-N-(2S-methyl-tetrahydro-furan-3R-yl)-adenosine]",,,338
"COC[C@H]1O[C@@H](n2cnc3c(N[C@@H]4CCC[C@H]4O)ncnc32)[C@H](O)[C@@H]1O [Example 17, N-(2R-Hydroxy-(R)-cyclopentyl)-5′-O-methyl-adenosine]",202 to 204,3.90,57.3
"CNS(=O)(=O)CCNc1nc(C)nc2c1ncn2[C@@H]1O[C@H](COC)[C@@H](O)[C@H]1O [Example 25, 2-[9-(3R,4S-Dihydroxy-5R-methoxymethyl-tetrahydro-furan-2R-yl)-2-methyl-9H-purin-6-ylamino]-ethanesulfonic acid methylamide]",,1.67,>288
"COC[C@H]1O[C@@H](n2cnc3c(NC(C)(C)C)ncnc32)[C@H](O)[C@@H]1O [Example 19, N-tert-Butyl-5′-O-methyl-adenosine]",,1.62,>243
"COC[C@H]1O[C@@H](n2cnc3c(N[C@@H]4C[C@@H]5CC[C@H]4C5)ncnc32)[C@H](O)[C@@H]1O (relative stereo) [Example 22, N-rel-[(1S,4R)-Bicyclo[2.2.1]hept-2R-yl]-5′-O-methyl-adenosine]",,,112
"N-(2,3-Dihydroxy-propylamino)-5′-O-methyl-adenosine [Example 21]",,,135
"COC[C@H]1O[C@@H](n2cnc3c(N[C@H]4CCC[C@@H]4OC)ncnc32)[C@H](O)[C@@H]1O [Example 3, N-(2S-Methoxy-(S)-cyclopentyl)-5′-O-methyl-adenosine]",,,204
"COC[C@H]1O[C@@H](n2cnc3c(N[C@H](C)Cc4ccccc4)ncnc32)[C@H](O)[C@@H]1O [Example 6, 5′-O-Methyl-N-(1R-methyl-2-phenyl-ethyl)-adenosine]",,1.27,5.00
"COC[C@H]1O[C@@H](n2cnc3c(N[C@H](C)CO)ncnc32)[C@H](O)[C@@H]1O [Example 14, N-(2-Hydroxy-1R-methyl-ethyl)-5′-O-methyl-adenosine]",232 to 233,,
